Activity calls are given as the source filed them. The rule behind the calls is not given here.
Columns and labels:
[1] = biological target: T1, Metabotropic glutamate receptor 5 (Homo sapiens, UniProt P41594); assay: Displacement of [3H]-MPEP from human mGluR5 expressed in HEK293 cells after 2 hrs; format: cell-based
Target sequence in this assay (P41594 whole entry): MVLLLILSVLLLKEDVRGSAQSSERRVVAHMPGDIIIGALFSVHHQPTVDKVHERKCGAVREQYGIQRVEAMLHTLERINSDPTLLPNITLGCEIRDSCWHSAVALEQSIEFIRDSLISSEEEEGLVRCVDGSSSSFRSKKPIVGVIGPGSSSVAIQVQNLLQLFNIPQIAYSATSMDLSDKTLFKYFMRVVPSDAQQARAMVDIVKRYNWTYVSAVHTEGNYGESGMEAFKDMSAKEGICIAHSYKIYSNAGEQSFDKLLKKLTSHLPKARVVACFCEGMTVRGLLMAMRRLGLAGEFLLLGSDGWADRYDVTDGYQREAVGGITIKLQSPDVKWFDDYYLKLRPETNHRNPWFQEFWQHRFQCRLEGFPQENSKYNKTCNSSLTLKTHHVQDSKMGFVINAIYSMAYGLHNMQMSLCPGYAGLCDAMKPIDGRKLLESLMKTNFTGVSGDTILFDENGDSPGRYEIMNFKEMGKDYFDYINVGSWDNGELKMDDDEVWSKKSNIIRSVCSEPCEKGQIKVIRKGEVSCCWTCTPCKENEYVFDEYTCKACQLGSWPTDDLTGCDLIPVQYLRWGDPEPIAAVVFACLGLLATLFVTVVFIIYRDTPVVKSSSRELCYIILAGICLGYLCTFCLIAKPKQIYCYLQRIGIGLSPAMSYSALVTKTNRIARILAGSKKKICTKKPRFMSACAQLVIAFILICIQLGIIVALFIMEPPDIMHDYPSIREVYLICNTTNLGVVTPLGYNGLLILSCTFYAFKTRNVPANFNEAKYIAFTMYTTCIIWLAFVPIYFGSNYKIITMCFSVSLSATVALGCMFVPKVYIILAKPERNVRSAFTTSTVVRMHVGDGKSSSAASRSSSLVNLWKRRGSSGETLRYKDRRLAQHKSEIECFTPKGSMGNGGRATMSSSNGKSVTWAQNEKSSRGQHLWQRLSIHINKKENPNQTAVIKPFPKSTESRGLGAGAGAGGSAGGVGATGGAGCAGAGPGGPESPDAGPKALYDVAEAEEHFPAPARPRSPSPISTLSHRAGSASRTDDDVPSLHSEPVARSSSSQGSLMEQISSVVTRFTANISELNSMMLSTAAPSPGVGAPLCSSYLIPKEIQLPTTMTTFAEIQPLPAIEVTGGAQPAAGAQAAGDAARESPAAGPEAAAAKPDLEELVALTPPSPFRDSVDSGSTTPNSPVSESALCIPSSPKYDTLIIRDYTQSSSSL

[2] = biological target: T1, Metabotropic glutamate receptor 5; assay: Negative allosteric modulation of human mGluR5 expressed in HEK293 cells assessed as inhibition of L-glutamate-induced calcium mobilization by FLIPR assay; format: functional, cell-based
Target sequence in this assay (P41594 whole entry): as above

[3] = biological target: T1, Metabotropic glutamate receptor 5; assay: Negative allosteric modulation of human mGluR5 expressed in HEK293 cells assessed as inhibition of L-glutamate-induced calcium mobilization at 10 uM by FLIPR assay relative to control; format: functional, cell-based
Target sequence in this assay (P41594 21-1212 limits assumed): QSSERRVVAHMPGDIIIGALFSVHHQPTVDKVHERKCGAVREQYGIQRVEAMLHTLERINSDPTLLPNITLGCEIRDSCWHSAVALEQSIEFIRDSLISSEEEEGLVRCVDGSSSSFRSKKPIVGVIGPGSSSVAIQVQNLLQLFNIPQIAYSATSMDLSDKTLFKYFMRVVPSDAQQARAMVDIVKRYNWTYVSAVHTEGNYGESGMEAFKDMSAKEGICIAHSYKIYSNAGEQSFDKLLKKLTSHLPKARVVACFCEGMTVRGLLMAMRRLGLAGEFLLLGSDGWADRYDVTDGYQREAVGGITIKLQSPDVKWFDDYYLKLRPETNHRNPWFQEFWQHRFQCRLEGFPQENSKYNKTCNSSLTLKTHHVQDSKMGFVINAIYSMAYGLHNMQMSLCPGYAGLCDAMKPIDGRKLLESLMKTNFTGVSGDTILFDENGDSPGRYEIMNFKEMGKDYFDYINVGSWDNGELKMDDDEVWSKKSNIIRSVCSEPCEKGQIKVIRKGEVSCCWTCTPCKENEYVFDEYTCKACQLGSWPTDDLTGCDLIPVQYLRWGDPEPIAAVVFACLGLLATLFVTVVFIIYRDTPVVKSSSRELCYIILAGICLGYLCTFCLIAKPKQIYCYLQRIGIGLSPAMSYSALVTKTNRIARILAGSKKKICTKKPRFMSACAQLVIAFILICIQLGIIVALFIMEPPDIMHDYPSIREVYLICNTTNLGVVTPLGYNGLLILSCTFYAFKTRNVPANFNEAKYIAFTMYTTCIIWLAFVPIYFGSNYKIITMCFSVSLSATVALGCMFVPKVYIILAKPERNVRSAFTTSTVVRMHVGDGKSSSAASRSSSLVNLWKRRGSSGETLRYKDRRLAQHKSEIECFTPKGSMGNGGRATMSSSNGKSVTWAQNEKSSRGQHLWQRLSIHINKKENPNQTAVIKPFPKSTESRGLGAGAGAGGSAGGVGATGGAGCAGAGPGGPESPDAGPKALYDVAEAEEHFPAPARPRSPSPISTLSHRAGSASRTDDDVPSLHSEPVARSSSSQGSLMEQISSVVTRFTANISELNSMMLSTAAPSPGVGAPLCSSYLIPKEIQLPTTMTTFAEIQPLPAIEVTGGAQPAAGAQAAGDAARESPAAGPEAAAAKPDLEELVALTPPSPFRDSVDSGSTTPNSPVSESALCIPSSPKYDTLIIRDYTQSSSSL

[4] = biological target: T1, Metabotropic glutamate receptor 5; assay: Positive allosteric modulation of human mGluR5 expressed in HEK293 cells assessed as increase of L-glutamate-induced calcium mobilization by FLIPR assay; format: functional, cell-based
Target sequence in this assay (P41594 whole entry): as the sequence (P41594 whole entry) above

[5] = biological target: T1, Metabotropic glutamate receptor 5; assay: Positive allosteric modulation of human mGluR5 expressed in HEK293 cells assessed as increase of L-glutamate-induced calcium mobilization at 10 uM by FLIPR assay relative to L-glutamate; format: functional, cell-based
Target sequence in this assay (P41594 21-1212 limits assumed): as the sequence (P41594 21-1212 limits assumed) above

Cc1cccc(C#Cc2ccc3c(n2)CCN(C(C)C)C3=O)c1
Ki [1]: 510 nM
IC50 ([2]; read-out: IC50): 4.8 nM
Imax [3]: 88%

O=C(NC1CCCC1)c1ccc(C#Cc2cccnc2)nc1
Ki [1]: > 32000 nM
EC50 ([4]; read-out: EC50): > 10000 nM
Emax [5]: 68%

COc1cccc(C#Cc2ccc3c(n2)CCN(C(C)C)C3=O)c1
Ki [1]: 2950 nM
IC50 ([2]; read-out: IC50): 111 nM
Imax [3]: 88%

CC(C)NC(=O)c1ccc(C#Cc2ccccc2)nc1
Ki [1]: 7100 nM
EC50 ([4]; read-out: EC50): 62 nM
Emax [5]: 61%

CC(C)N1CCc2nc(C#Cc3ccc(Cl)cc3)ccc2C1=O
Ki [1]: 27100 nM
IC50 ([2]; read-out: IC50): 4230 nM
Imax [3]: 61%

Cc1ccccc1C#Cc1ccc2c(n1)CCN(C(C)C)C2=O
Ki [1]: > 32000 nM
IC50 ([2]; read-out: IC50): 810 nM
Imax [3]: 76%

CN1CCc2nc(C#Cc3ccccc3Cl)ccc2C1=O
Ki [1]: 7900 nM
IC50 ([2]; read-out: IC50): 916 nM
Imax [3]: 70%

CC(C)N1CCc2nc(C#Cc3ccccc3Cl)ccc2C1=O
Ki [1]: 5680 nM
IC50 ([2]; read-out: IC50): 2520 nM
Imax [3]: 61%

O=C1c2ccc(C#Cc3ccc(Cl)cc3)nc2CCN1C1CCCCC1
Ki [1]: > 32000 nM
EC50 ([4]; hek293): Not Active
Emax [5]: inactive
IC50 ([2]; hek293): Not Active
Imax [3]: inactive

CN1CCc2nc(C#Cc3cccnc3)ccc2C1=O
Ki [1]: 27400 nM
EC50 ([4]; hek293): Not Active
IC50 ([2]; hek293): Not Active

O=C1c2ccc(C#Cc3ccc(Cl)cc3)nc2CCN1C1CCCC1
Ki [1]: > 32000 nM
EC50 ([4]; read-out: EC50): 979 nM
Emax [5]: 98%

CC(C)N1CCc2nc(C#Cc3ccccn3)ccc2C1=O
Ki [1]: 2740 nM
IC50 ([2]; read-out: IC50): 27 nM
Imax [3]: 89%

O=C1c2ccc(C#Cc3ccccc3)nc2CCN1C1CCCCC1
Ki [1]: 12400 nM
EC50 ([4]; read-out: EC50): 40 nM
Emax [5]: 122%

COc1cccc(C#Cc2ccc3c(n2)CCN(C)C3=O)c1
Ki [1]: 3660 nM
IC50 ([2]; read-out: IC50): 293 nM
Imax [3]: 88%

O=C1c2ccc(C#Cc3cccc(Cl)c3)nc2CCN1C1CCCC1
Ki [1]: 5230 nM
EC50 ([4]; read-out: EC50): 33 nM
Emax [5]: 87%

COc1cccc(C#Cc2ccc3c(n2)CCN(C2CCCC2)C3=O)c1
Ki [1]: > 32000 nM
EC50 ([4]; read-out: EC50): 462 nM
Emax [5]: 25%

CC(C)N1CCc2nc(C#Cc3cccnc3)ccc2C1=O
Ki [1]: 19600 nM
EC50 ([4]; hek293): Not Active
IC50 ([2]; hek293): Not Active

O=C(NC1CCCC1)c1ccc(C#Cc2ccccn2)nc1
Ki [1]: 7600 nM
IC50 ([2]; read-out: IC50): 227 nM
Imax [3]: 90%

Cc1ccc(C#Cc2ccc3c(n2)CCN(C(C)C)C3=O)cc1
Ki [1]: 20200 nM
EC50 ([4]; read-out: EC50): 1010 nM
Emax [5]: 28%

CC(C)N1CCc2nc(C#Cc3cccs3)ccc2C1=O
Ki [1]: 1930 nM
IC50 ([2]; read-out: IC50): 45 nM
Imax [3]: 78%

CC(C)N1CCc2nc(C#Cc3ccccc3)ccc2C1=O
Ki [1]: 1280 nM
IC50 ([2]; read-out: IC50): 706 nM
Imax [3]: 60%

Cc1ccccc1C#Cc1ccc2c(n1)CCN(C1CCCCC1)C2=O
Ki [1]: > 32000 nM
EC50 ([4]; read-out: EC50): 466 nM
Emax [5]: 62%

CN1CCc2nc(C#Cc3ccccn3)ccc2C1=O
Ki [1]: 6240 nM
IC50 ([2]; read-out: IC50): 184 nM
Imax [3]: 92%

O=C1c2ccc(C#Cc3ccccn3)nc2CCN1C1CCCCC1
Ki [1]: 2240 nM
IC50 ([2]; read-out: IC50): 518 nM
Imax [3]: 74%

CN1CCc2nc(C#Cc3ccccc3)ccc2C1=O
Ki [1]: 760 nM
IC50 ([2]; read-out: IC50): 30 nM
Imax [3]: 58%

Cc1cccc(C#Cc2ccc3c(n2)CCN(C2CCCCC2)C3=O)c1
Ki [1]: 3210 nM
EC50 ([4]; read-out: EC50): 36 nM
Emax [5]: 54%

O=C1c2ccc(C#Cc3cccnc3)nc2CCN1C1CCCC1
Ki [1]: > 32000 nM
EC50 ([4]; read-out: EC50): 748 nM
Emax [5]: 68%

Cc1ccc(C#Cc2ccc3c(n2)CCN(C2CCCCC2)C3=O)cc1
Ki [1]: 27200 nM

O=C1c2ccc(C#Cc3cccs3)nc2CCN1C1CCCC1
Ki [1]: 2840 nM
EC50 ([4]; read-out: EC50): 12 nM
Emax [5]: 103%

O=C1c2ccc(C#Cc3cccs3)nc2CCN1C1CCCCC1
Ki [1]: 720 nM
EC50 ([4]; read-out: EC50): 13 nM
Emax [5]: 112%

COc1cccc(C#Cc2ccc3c(n2)CCN(C2CCCCC2)C3=O)c1
Ki [1]: 23200 nM

O=C1c2ccc(C#Cc3cccc(Cl)c3)nc2CCN1C1CCCCC1
Ki [1]: 12000 nM
EC50 ([4]; read-out: EC50): 171 nM
Emax [5]: 47%

O=C1c2ccc(C#Cc3ccccn3)nc2CCN1C1CCCC1
Ki [1]: 1770 nM
IC50 ([2]; read-out: IC50): 199 nM
Imax [3]: 80%

Cc1cccc(C#Cc2ccc3c(n2)CCN(C)C3=O)c1
Ki [1]: 820 nM
IC50 ([2]; read-out: IC50): 2.9 nM
Imax [3]: 86%

Cc1cccc(C#Cc2ccc3c(n2)CCN(C2CCCC2)C3=O)c1
Ki [1]: 670 nM
EC50 ([4]; read-out: EC50): 7.5 nM
Emax [5]: 97%

CNC(=O)c1ccc(C#Cc2ccccc2)nc1
Ki [1]: 15000 nM

O=C1c2ccc(C#Cc3cccnc3)nc2CCN1C1CCCCC1
Ki [1]: 15600 nM
EC50 ([4]; read-out: EC50): 387 nM
Emax [5]: 73%

CC(C)N1CCc2nc(C#Cc3cccc(Cl)c3)ccc2C1=O
Ki [1]: 100 nM
IC50 ([2]; read-out: IC50): 5.7 nM
Imax [3]: 86%

O=C(NC1CCCC1)c1ccc(C#Cc2ccccc2)nc1
Ki [1]: 3300 nM
EC50 ([4]; read-out: EC50): 19 nM
Emax [5]: 106%

CN1CCc2nc(C#Cc3cccc(Cl)c3)ccc2C1=O
Ki [1]: 250 nM
IC50 ([2]; read-out: IC50): 22 nM
Imax [3]: 84%

CN1CCc2nc(C#Cc3cccs3)ccc2C1=O
Ki [1]: 2170 nM
IC50 ([2]; read-out: IC50): 451 nM
Imax [3]: 49%

O=C1c2ccc(C#Cc3ccccc3)nc2CCN1C1CCCC1
Ki [1]: 890 nM
EC50 ([4]; read-out: EC50): 5.9 nM
Emax [5]: 109%

Cc1ccccc1C#Cc1ccc2c(n1)CCN(C1CCCC1)C2=O
Ki [1]: 18800 nM
EC50 ([4]; read-out: EC50): 239 nM
Emax [5]: 107%

CN1CCc2nc(C#Cc3ccc(Cl)cc3)ccc2C1=O
Ki [1]: 6150 nM
IC50 ([2]; read-out: IC50): 352 nM
Imax [3]: 73%

O=C1c2ccc(C#Cc3ccccc3Cl)nc2CCN1C1CCCC1
Ki [1]: > 32000 nM
EC50 ([4]; read-out: EC50): 393 nM
Emax [5]: 115%

Cc1ccc(C#Cc2ccc3c(n2)CCN(C2CCCC2)C3=O)cc1
Ki [1]: > 32000 nM
EC50 ([4]; read-out: EC50): 4820 nM
Emax [5]: 97%

O=C1c2ccc(C#Cc3ccccc3Cl)nc2CCN1C1CCCCC1
Ki [1]: > 32000 nM
EC50 ([4]; read-out: EC50): 924 nM
Emax [5]: 68%

Cc1ccc(C#Cc2ccc3c(n2)CCN(C)C3=O)cc1
Ki [1]: 7450 nM
IC50 ([2]; read-out: IC50): 1400 nM
Imax [3]: 68%

Cc1ccccc1C#Cc1ccc2c(n1)CCN(C)C2=O
Ki [1]: > 32000 nM
IC50 ([2]; read-out: IC50): 776 nM
Imax [3]: 80%

— ChEMBL document CHEMBL1777732 (Bioorg Med Chem Lett, 2011)
